Entries after “also recorded” stand apart in the source; their conditions may differ. Where two headings read alike, the source gives them in different places.
Tests used:
[1] = Gross toxicology after intravenous (tail vein) injection in mice and rats; assay type: in vivo
Method: (§1) Gross Toxicology. In order to be economical with the product, the gross toxicology of 6-IG was first determined in mice and rats. Enough material was injected in a volume of 0.1 ml into the tail vein to raise the blood concentration to 10^-3, 10^-2, and 10^-1 M, (0.02-2.11 g/kg). As an osmotic control, equimolar amounts of α-D-galactopyranose were injected into age matched animals.
6-IG was injected intravenously into 20 g male mice and equivalent amounts of α-D-galactopyranose were injected into age-matched controls. […] Three days post-injection, the animals were killed by ether inhalation and autopsied.

[2] = Observation of side effects after intravenous injection in dogs; assay type: in vivo, Mongrel dogs
Method: (§2) Mongrel dogs (40-50 lbs) were injected intravenously with a bolus of α-D-galactose sufficient to raise the blood concentration to a level of 10^-2 M. They were then required to walk from the animal facility to the CAT scanner, approximately 10 minutes, where they were anesthetized. Anesthesia was induced with thiamytal (lmg/kg) and the animal was intubated with a cuffed endotrachial tube. Following induction, anesthesia was maintained with a gaseous mixture of Halothane, nitrous oxide and oxygen.
(§3) The time elapsed from injection to the start of the scan was approximately 1 hour. CAT scanning data were recorded on tape and served as a background control. Upon completion of scanning, the dog was recovered from anesthesia and returned to the animal facility, where routine care was resumed.
(§4) This procedure was repeated one day later; however, 6-IG was injected to an initial blood concentration of 10^-2 M. Nine days and 33 days following the injection, repeat scans were performed to ensure that the contrast medium had cleared.

[3] = test system: brain; assay: CAT scanning of dog brain after injection of contrast medium; assay type: in vivo
Method: as §2, §3, §4
The dog's brains were scanned by CAT in sequential slices in 3 mm. increments. […] The arrow indicates the regions where contrast was observed.

[4] = test system: brain; assay: Feasibility calculation of brain concentration of 6-iodo-D-galactose; set-up: species or system human
Text: It appears feasible to achieve such concentrations in, for example, brain tissue, by administering a sufficient amount of 6-iodo-D-galactose to obtain an initial blood concentration of about 10^-2 M in the patient.
However, it is proposed to use 6-iodo-D-galactose or other such 2-, 5- or 6-substituted hexoses. […] But the uptake of galactose relative to 2-deoxyglucose is 31%. Therefore, it is estimated that the total brain concentration of 6-iodo-D-galactose is approximately 20%×0.31, or 6% of the initial blood concentration. When the initial blood concentration is 10^-2 M, final brain concentration would approximate 6×10^-4 M. To achieve this, it is necessary to inject approximately 15 grams of iodogalactose. [formula]
An adult has a blood volume of approximately 4-5 L, so to achieve the desired concentration of 10^-2 M (moles per liter) of 6-iodo-galactosewhose formula weight is 290 g/mole will require:
wt=(5 liter)(1 X10^-2 mole/liter)(290 g/mole)=14 g.
Thus, the criterion of having a brain concentration within the range of 10^-4 to 10^-3 M is met. Although this concentration is the lower limit of detection, it should not deleteriously affect the clarity of the brain CAT scan. […]

[5] = Observation of side effects after injection into mice, rats, and dogs; assay type: in vivo; details: in the concentrations described
Method: This is the region associated with limb and tail movement in the dog. […] Thus, the accumulation can be made to be selective.
as §1, §2

[6] = test system: blood/brain barrier saturable carrier of glucose; details: cited from earlier work
[7] = test system: brain; details: 0.5 mg FDG injection, cited from earlier work

Compound: O[C@@H]1[C@@H](O)[C@@H](O)O[C@H](CI)[C@@H]1O [6-IG, 6-iodo-6-deoxy-α-D-galactopyranose]
- immediate effects of injection on the animals ([1]; 20 g male mice, i.v., max 2.11 g 6-IG/kg or equivalent amount of α-D-galactopyranose): no apparent immediate effects on the animals
- gross findings at autopsy ([1]; mice, three days post-injection, i.v., max 2.11 g 6-IG/kg): no gross findings
- apparent side effects ([2]; dogs, i.v., initial blood concentration 10^-2 M): Neither the control nor the iodinated injection medium had any apparent side effects
- contrast accumulation in the cortical area, posterior portion of frontal lobe ([3]; 1 hour post-injection, initial blood concentration 10^-2 M): accumulated in the cortical area of the posterior portion of the frontal lobe within one hour after injection; also recorded: beginning of accumulation as early as 1 hour post-injection
- contrast in pareital region and other areas of the brain ([3]; 9 days post-injection (FIG. 3)): no contrast is seen in the pareital lobe intracellular section shown in FIG. 3, nor in any other areas of the brain that were scanned; also recorded: no contrast medium has accumulated in that section of the brain
- contrast accumulation in the cortical area, posterior portion of frontal lobe ([3]; 9 days post-injection, initial blood concentration 10^-2 M): greater contrast is seen in the same region 9 days post-injection; also recorded: greater contrast in the same cortical regions
- clearance of contrast medium ([3]; 33 days post-injection, initial blood concentration 10^-2 M): cleared completely
- accumulation and clearance compared to FDG (PET) ([3]; compared to Fluorodeoxyglucose): relatively slower
- time of peak concentration ([3]; dog brain, between 1 hour and 9 days post-injection): some time inbetween
- clearance of the compound ([3]; dog brain, present at nine days post injection): relatively slow
- distribution of accumulation in brain ([3]; general statement on accumulation in dog brain): accumulates in areas of the brain that are metabolically hyperactive in response to normal stimuli
- distribution of accumulation after digitization ([3]; slice of FIG. 2C, 9 days post-injection, background subtracted): generally greatest in the cortical region
- estimated total brain concentration as percent of initial blood concentration ([4]; calculated as 20%×0.31): ~6%
- concentration ([4]; initial blood concentration 10^-2 M, read-out: estimated final brain concentration): ~600 µM
- obvious side effects [5]: do not produce any obvious side effects

Compound: OC[C@H]1OC(O)C[C@@H](O)[C@@H]1O (stereo partly drawn) [2-deoxyglucose]
- crossing of blood/brain barrier [6]: cross the blood/brain barrier by the same saturable carrier as glucose

Compound: Fluorodeoxyglucose [FDG]
- brain concentration of FDG ([7]; after 40 minutes accumulation time): 25 ng/cc
- brain concentration as percent of initial blood concentration ([7]; human, 40 min): 20%
- concentration ([7]; read-out: molar brain concentration of FDG, after 40 minutes, brain cell volume 1 L): 0.138 µM

Compound: OC[C@H]1O[C@H](O)[C@H](O)[C@@H](O)[C@H]1O [α-D-galactopyranose, reference compound]
- gross findings at autopsy ([1]; in vivo, iv): no gross findings
- immediate effects of injection on the animals ([1]; in vivo, iv): no apparent immediate effects on the animals
- apparent side effects ([2]; dog, in vivo, iv): Neither the control nor the iodinated injection medium had any apparent side effects
- uptake relative to 2-deoxyglucose [6]: 31%
- crossing of blood/brain barrier ([6]; same saturable carrier as glucose): cross the blood/brain barrier by the same saturable carrier as glucose
